Measured values taken from US8753820B2, “Protein biomarkers for soft tissue disease diagnosis and as therapeutic targets for oral care intervention” (Colgate-Palmolive Company, priority 2009, dated 2014).

Key:
[1] = system: MMP-13 expression in UMR 106-01 cells; test: MMP-13 expression by real time quantitative RT-PCR in PTH stimulated UMR 106-01 cells; assay type: cell-based, Rat; details: 4 hours; for MMP-13 expression in PTH stimulated UMR cells: PTH 10^-8 M
Protocol: Parathyroid hormone (rat PTH 1-34) was purchased from Sigma. UMR 106-01 cells were cultured in Eagle's minimal essential medium (EMEM) supplemented with 25 mM Hepes pH 7.4, 1% nonessential amino acids, 100 units/ml penicillin, 100 μg/ml streptomycin. 5% fetal bovine serum. Real Time Quantitative RT-PCR was conducted according to the following method: UMR 106-01 cells were seeded in 12-well plates and cultured for 2-3 days in cell culture media. When cells were confluent, cell culture media was exchanged with 1% fetal bovine serum for overnight for cell starvation. Cells were pre-incubated with dentifrice for 15 min and then incubated with PTH (10^−8 M) for 4 hours.
Total RNA was isolated from UMR 106-01 cells stimulated with or without PTH with TRIzol reagent. Total RNA (0.1 μg) was reverse-transcribed to cDNA using the Invitrogen SUPERSCRIPT kit according to the manufacturer's instructions. All cDNAs were amplified by adding 2.5 μl of cDNA to the PCR mixture (22.5 μl) containing each primer (0.2 μM) and 12.5 μl of the Platinum SYBR Green qPCR SuperMix UDG (Invitrogen). The reactions were preincubated at 50° C. for 2 minutes to decontaminate dU-containing DNA by UDG, then at 95° C. for 2 minutes to inactivate UDG and activate Taq. The PCR program continued 49 cycles of denaturation at 95° C. for 15 seconds, annealing and elongation of the primers at 60° C. for 30 seconds. Relative quantification of gene expression was determined by using the 2-delta delta CT method where fold changes in gene expression are relative to control samples. All samples were normalized to β-actin.
All results were expressed as means±standard error (S.E.) of triplicate measurements with all experiments being repeated at least three times. Statistical analyses were carried out using the Student's t test.

[2] = system: MMP-9 production of U937 cells; test: MMP-9 ELISA of conditioned media from TNFα-stimulated U937 monocyte cells; assay type: cell-based, Human; details: for MMP-9 production, Average: U937 cells, 24 hours, ELISA of conditioned media
Protocol: U937 cells and RPMI 1640 culture medium were obtained from ATCC. Human MMP-9 ELISA Kit (QUANTIKINE) was obtained from R&D Systems. Fetal Bovine Serum (FBS) was obtained from VWR, and the penicillin-streptomycin solution and Tumor Necrosis Factor α (TNFα) were obtained from Sigma.
Human leukemia U937 monocyte lymphoma cells were cultured in RPMI 1640 medium supplemented with 10% FBS and 1% Penicillin-Streptomycin solution. Cells were incubated at 37° C. in a humidified atmosphere containing 5% CO2 and 95% air. Before treatment, cells were transferred into RPMI containing 1% FBS for overnight. Cells were plated on a 48 well plate. Cell culture medium included either TNFα (250 ng/mL), Triclosan (1 ppm), or both agents together or no agent (control). Cells were incubated after treatment for 24 hours. Conditioned media were collected and store at −80° C. until analysis. Samples of conditioned media were subjected to enzyme-linked immunosorbent assays (ELISA) for MMP-9, according to commercial ELISA protocol (FIG. 1).

[3] = PEG 600 present in a weight ratio of 25 triclosan:1 PEG 600, versus absence of polyethylene glycol; cited from earlier work

With `Oc1cc(Cl)ccc1Oc1ccc(Cl)cc1Cl` [Triclosan, 2,4,4′-trichloro-2′-hydroxydiphenyl ether] the “MMP-13 expression in PTH stimulated UMR cells” value ([1]; 1 ppm) was “significantly reduced”, the “MMP-13 expression in PTH stimulated UMR cells” value ([1]; 4 ppm) was “significantly reduced” and the “MMP-13 expression in PTH stimulated UMR cells” value ([1]; 10 ppm) was “significantly reduced”. The “MMP-9 level in TNFα stimulated U937 cells” value ([2]; Triclosan at 1 ppm) was “significantly reduced”, the “MMP-9 production, Average” value ([2]; TNFα 250 ng/mL + Triclosan 1 ppm) was 0.155 ng/mL and the “factor by which antibacterial activity of triclosan is reduced” value [3] was 10-20.

For TNFα, the “MMP-9 production, Average” value ([2]; TNFα 250 ng/mL alone) was 0.275 ng/mL and the “MMP-9 level in U937 cells” value ([2]; stimulated with TNFα) was “increase”.

In the case of “PTH: Parathyroid hormone (rat PTH 1-34) purchased from Sigma, used to stimulate MMP-13 expression (AVSEIQLMHNLGKHLASVERMQWLRKKLQDVHNF; Parathyroid hormone; UniProt P04089 32-65, looked up, fragment)”, the “MMP-13 expression in UMR cells” value ([1]; stimulated with PTH 10^-8 M) is reported as “increase”.
